Reference: PMC8963105, “A Novel Modulator of the Renin–Angiotensin System, Benzoylaconitine, Attenuates Hypertension by Targeting ACE/ACE2 in Enhancing Vasodilation and Alleviating Vascular Inflammation” (Frontiers in Pharmacology, 2022)

Key:
[1] = system: ACE2; assay: serum ACE2 by ELISA in SHRs after 14-day oral administration; assay type: in vivo, rat; settings: oral 14 days
Text: (§1) All three MDAs (BAC, BMC, and BHC) were purchased from Nature-Standard Co., Ltd. (Shanghai, China) and their purities were all over 98%. The anti-hypertensive effects of MDAs were studied in both acute and chronic experiments. The 16-week-old SHRs were used in animal experiments, and each group had six rats. In the acute experiment, drug administration was via i.v. injection. For i.v. injection, the animals were randomly assigned into four groups: vehicle (0.1% DMSO–0.9% salt solution, n = 6), low-dose group (0.6 mg kg^−1 body weight, n = 6), medium-dose group (2 mg kg^−1 body weight, n = 6), and high-dose group (6 mg kg^−1 body weight, n = 6). The drug was administered using a venous catheter. […] Blood pressure was recorded in real time.
(§2) Blood samples were collected from the left femoral artery of rats at the end point, followed by centrifugation at 1,000 × g for 15 min at 4°C. […] The concentrations of circulating ACE, ACE2, Ang I, Ang II, Ang (1–7), TNF-α, and IL-6 in serum were measured using the ELISA kits [ACE, cat#xy-R2401c, X-Y Biotechnology, Shanghai, China; ACE2, cat#xy-ACE2-Ra, X-Y Biotechnology; Ang I, cat#xy-E12541, X-Y Biotechnology; Ang II, cat#xy-R1430c, X-Y Biotechnology; Ang (1–7), cat#xy-Ang1-7-Ra, X-Y Biotechnology; TNF-α, cat#GM1149, Servicebio, Shanghai, China; IL-6, cat#GM1154, Servicebio] according to the manufacturer’s instructions. […]

[2] = system: ACE2; assay: ACE2 expression in aorta of SHRs (Western blot, tissue immunofluorescence); assay type: in vivo, rat; settings: oral 14 days
Text: as §1, with “catheter. In chronic experiments, the animals were randomly assigned into five groups: vehicle (5% Tween 80–0.9% salt solution, n = 6), captopril group (5 mg kg^−1 body weight, n = 6), low-dose group (3 mg kg^−1 body weight, n = 6), medium-dose group (10 mg kg^−1 body weight, n = 6), and high-dose group (30 mg kg^−1 body weight, n = 6). Oral administration with drug or 5% Tween 80–0.9% salt solution was carried out once a day, and continued for 14 days.” for “catheter.”, “time. […]” for “time.”
(§3) The cell samples and tissue sample were collected and placed in ice rapidly. […] Protein concentration in cell lysates was measured using a Bio-Rad DC Protein Assay Kit […]. […]

[3] = system: TNF-α; assay: serum TNF-α by ELISA in SHRs; assay type: in vivo, rat; settings: oral 14 days
Text: as §1, §2

[4] = system: COX-2; assay: COX-2 expression in aorta of SHRs (Western blot); assay type: in vivo, rat; settings: oral 14 days
Text: as §1, with “catheter. In chronic experiments, the animals were randomly assigned into five groups: vehicle (5% Tween 80–0.9% salt solution, n = 6), captopril group (5 mg kg^−1 body weight, n = 6), low-dose group (3 mg kg^−1 body weight, n = 6), medium-dose group (10 mg kg^−1 body weight, n = 6), and high-dose group (30 mg kg^−1 body weight, n = 6). Oral administration with drug or 5% Tween 80–0.9% salt solution was carried out once a day, and continued for 14 days.” for “catheter.”
as §3

[5] = system: HUVECs; assay: CCK-8 cell viability (drug cytotoxicity) in HUVECs; assay type: cell-based, human; settings: dose lower than 100 μM, 48 h
Text: Human umbilical vein endothelial cells (HUVECs) were isolated from umbilical cords as previously described ([Jaffe et al., 1973]). They were purchased from ATCC (cat# CRL-1444, Manassas, VA, United States) and cultured in endothelial cell medium (ECM, ScienCell, Carlsbad, CA, United States) supplemented with 5% FBS, 1% endothelial cell growth supplement, and 1% antibiotics (Sigma, St. Louis, MO, United States). Cells harvested between the third and tenth passages were used in the experiments. Cells were cultured until they were ∼80% confluent. After pre-starving in a quiescing ECM supplemented with 1% FBS and 1% antibiotics for 24 h, the cells were treated using different concentrations of BAC (Control, DMSO, 25, 50, and 100 μM, dissolved in 0.1% DMSO–DMEM) with or without MG132, an inhibitor of proteasome, at 20 nM or 40 nM for 24 h. Then, cell samples were collected for Western blot analysis or immunofluorescence staining.
The potential of cells to maintain or recover viability after treatment with each agent was determined. Cell viability can be distinguished from the all-or-nothing states of life and death using a quantifiable index between 0 and 1 (or 0 and 100%). Cell viability was measured by a Cell Counting Kit-8 (CCK-8) Assay Kit (EnoGene, Nanjing, China). […] After 1 h of incubation, the absorbance was measured at 450 nm using a microplate reader (Thermo Fisher Scientific). […]

[6] = system: ACE; assay: ACE expression in aorta of SHRs (Western blot, tissue immunofluorescence); assay type: in vivo, rat; settings: oral 14 days
Text: as §1, with “catheter. In chronic experiments, the animals were randomly assigned into five groups: vehicle (5% Tween 80–0.9% salt solution, n = 6), captopril group (5 mg kg^−1 body weight, n = 6), low-dose group (3 mg kg^−1 body weight, n = 6), medium-dose group (10 mg kg^−1 body weight, n = 6), and high-dose group (30 mg kg^−1 body weight, n = 6). Oral administration with drug or 5% Tween 80–0.9% salt solution was carried out once a day, and continued for 14 days.” for “catheter.”, “time. […]” for “time.”
as §3

[7] = system: IL-6; assay: serum IL-6 by ELISA in SHRs; assay type: in vivo, rat; settings: oral 14 days
Text: as §1, §2

[8] = system: p-IKB-α; assay: phosphorylation of IKB-α in aorta of SHRs (Western blot); assay type: in vivo, rat; settings: oral 14 days
Text: as §1, with “catheter. In chronic experiments, the animals were randomly assigned into five groups: vehicle (5% Tween 80–0.9% salt solution, n = 6), captopril group (5 mg kg^−1 body weight, n = 6), low-dose group (3 mg kg^−1 body weight, n = 6), medium-dose group (10 mg kg^−1 body weight, n = 6), and high-dose group (30 mg kg^−1 body weight, n = 6). Oral administration with drug or 5% Tween 80–0.9% salt solution was carried out once a day, and continued for 14 days.” for “catheter.”
as §3

## CCN1CC2(COC)C(O)CC(OC)C34C5CC6(O)C(OC)C(O)C(O)(C5C6OC(=O)c5ccccc5)C(C(OC)C23)C14 (centres unmarked) [BAC, Benzoylaconitine]
[1]
  level of ACE2 in blood: did not change
[2]
  ACE2 expression in the aorta: no effect
[3]
  level of TNF-α in serum: reduced
[4]
  expression of COX-2: downregulated
[5]
  cell viability (toxicity on HUVECs): no significant effect
[6]
  ACE expression in the aorta: significantly downregulated
[7]
  level of IL-6 in serum: reduced
[8]
  phosphorylation of IKB-α: downregulated
